Test results published in patent US8933105B2, “Pyrrole compounds” (Takeda Pharmaceutical Company Limited, priority 2007, dated 2015).
Structures can show the parent of a compound that is named as a salt.

How the values were obtained:
[1] = molecular target: T1, proton, potassium-adenosine triphosphatase (H+,K+-ATPase) (Sus scrofa, UniProt P19156); assay: Proton potassium-adenosine triphosphatase (H+,K+-ATPase) inhibitory activity test; format: biochemical; details: swine gastric microsomal fraction, pH 6.5, 37° C.
T1 construct: a gastric mucous membrane microsomal fraction was prepared from the stomach of swine; from tissue; host or cells: swine stomach, gastric mucous membrane microsomal fraction
Protocol: Proton Potassium-Adenosine Triphosphatase (H^+,K^+-ATPase) Inhibitory Activity Test
According to the method [Biochim. Biophys. Acta, 728, 31 (1983)] of Wallmark et al., a gastric mucous membrane microsomal fraction was prepared from the stomach of swine. First, the stomach was removed, washed with tap water, immersed in 3 mol/L brine, and the surface of the mucous membrane was wiped with a paper towel. The gastric mucous membrane was detached, chopped, and homogenized in a 0.25 mol/L saccharose solution (pH 6.8) containing 1 mmol/L EDTA and 10 mmol/L tris-hydrochloric acid using polytron (Kinematica). The obtained homogenate was centrifuged at 20,000×g for 30 min and the supernatant was centrifuged at 100,000×g for 90 min. The precipitate was suspended in 0.25 mol/L saccharose solution, superimposed on a 0.25 mol/L saccharose solution containing 7.5% Ficoll, and centrifuged at 100,000×g for 5 hr. The fraction containing the interface between the both layers was recovered, and centrifugally washed with 0.25 mol/L saccharose solution.
The obtained microsomal fraction was used as a proton, potassium-adenosine triphosphatase standard product.
To 40 μL of a 50 mmol/L HEPES-tris buffer (5 mmol/L magnesium chloride, 10 mmol/L potassium chloride, 10 μmol/L valinomycin, pH=6.5) containing 2.5 μg/mL (based on the protein concentration) of the enzyme standard product was added a test compound (5 μL) dissolved in a 10% aqueous dimethyl sulfoxide solution, and the mixture was incubated at 37° C. for 30 min. The enzyme reaction was started by adding 5 μL of a 2 mmol/L adenosine triphosphate tris salt solution (50 mmol/L HEPES-tris buffer (5 mmol/L magnesium chloride, pH 6.5)). The enzyme reaction was carried out at 37° C. for 20 min, and 15 μL of a malachite green solution (0.12% malachite green solution in sulfuric acid (2.5 mol/L), 7.5% ammonium molybdate and 11% Tween 20 were mixed at a ratio of 100:25:2) was added to quench the reaction. After allowing to stand at room temperature for 15 min, the resulting reaction product of inorganic phosphorus with malachite green was calorimetrically determined at a wavelength of 610 nm. In addition, the amount of the inorganic phosphoric acid in the reaction solution free of potassium chloride was measured in the same manner, which was subtracted from the inorganic phosphoric acid amount in the presence of potassium chloride to determine the proton, potassium-adenosine triphosphatase activity. The inhibitory rate (%) was determined from the activity value of the control and the activity values of various concentrations of the test compound, and the 50% inhibitory concentration (IC50) of the proton, potassium-adenosine triphosphatase was determined.

HepG2 = assay: ATP content test (intracellular ATP content, ATPLite); format: cell-based, Human; details: HepG2, 30 μM, culture for one day, relative value to control (without addition of drug)
Protocol: (§1) Human liver cancer-derived cell line HepG2 (ATCC No. HB-8065) was passaged using Dulbecco's Modified Eagle medium (DMEM; Invitrogen) containing 10% fetal bovine serum (FBS; TRACE SCIENTIFIC LTD.), 1 mmol/L sodium pyruvate (Invitrogen), 2 mmol/L L-glutamine (Invitrogen), 50 IU/mL penicillin (Invitrogen) and 50 μg/mL streptomycin (Invitrogen) at 5% CO2, 37° C. The test reagent was prepared with DMSO to 10 mM, and further diluted with DMEM medium containing 0.5% FBS, 1 mmol/L sodium pyruvate, 2 mmol/L L-glutamine, 50 IU/mL penicillin and 50 μg/mL streptomycin to a final concentration of DMSO of 0.1%. HepG2 (2×10^4 cells/well) was cultured on a 96 well white plate (Costar) with the test reagent at 5% CO2, 37° C. After culture for one day, the intracellular ATP content was measured using ATPLite™ (PerkinElmer Life Sciences). The results are shown in Table 26 (n≧3, average value±SD) as a relative value (%) to control (without addition of drug) at 30 μM.

Caspase-3/7 = Caspase-3/7 activity test (Caspase-Glo 3/7 Assay); format: cell-based, Human; details: HepG2, 30 μM, culture for one day, relative to maximum with Staurosporine (100%) and no test reagent (0%)
Protocol: as §1
Caspase-3/7 Activity Test
The Caspase-3/7 activity in the cells cultured for one day by a method similar to that in Experimental Example 2 was measured using Caspase-Glo 3/7 Assay (Promega). The results are shown in Table 26 (n≧3, average value±SD) as relative activity (%) of each reagent based on the maximum value of Caspase-3/7 activity when exposed to Staurosporine (100%), and the activity without addition of a test reagent (0%).

T1 sequence (P19156 2-1034 limits assumed): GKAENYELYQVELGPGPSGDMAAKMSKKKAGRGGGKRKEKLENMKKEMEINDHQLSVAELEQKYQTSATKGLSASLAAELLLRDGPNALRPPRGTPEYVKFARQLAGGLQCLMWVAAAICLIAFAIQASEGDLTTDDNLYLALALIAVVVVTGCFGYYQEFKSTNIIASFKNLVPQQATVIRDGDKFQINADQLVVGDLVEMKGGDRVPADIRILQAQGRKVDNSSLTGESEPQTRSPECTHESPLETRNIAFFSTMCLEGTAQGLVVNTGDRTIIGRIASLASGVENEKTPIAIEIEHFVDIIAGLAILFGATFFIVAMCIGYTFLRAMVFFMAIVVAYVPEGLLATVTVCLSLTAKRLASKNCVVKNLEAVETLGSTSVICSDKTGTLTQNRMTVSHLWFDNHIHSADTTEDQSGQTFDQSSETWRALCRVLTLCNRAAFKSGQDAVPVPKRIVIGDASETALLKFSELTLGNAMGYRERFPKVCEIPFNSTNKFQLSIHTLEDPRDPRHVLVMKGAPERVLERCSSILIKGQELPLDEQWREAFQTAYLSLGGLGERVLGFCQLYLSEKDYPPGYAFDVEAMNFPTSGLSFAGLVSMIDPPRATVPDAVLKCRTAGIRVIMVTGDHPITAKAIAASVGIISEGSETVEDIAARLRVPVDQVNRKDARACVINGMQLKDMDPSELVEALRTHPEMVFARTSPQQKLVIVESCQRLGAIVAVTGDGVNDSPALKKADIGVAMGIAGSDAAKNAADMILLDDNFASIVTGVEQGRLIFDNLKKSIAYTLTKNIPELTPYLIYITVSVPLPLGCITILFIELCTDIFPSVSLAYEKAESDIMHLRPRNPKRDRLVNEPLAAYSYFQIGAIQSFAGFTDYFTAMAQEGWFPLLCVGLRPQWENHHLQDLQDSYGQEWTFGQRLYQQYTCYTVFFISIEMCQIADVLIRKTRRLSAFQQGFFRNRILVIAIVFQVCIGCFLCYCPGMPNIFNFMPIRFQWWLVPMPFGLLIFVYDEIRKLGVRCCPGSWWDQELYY
T1 sequence (P18434 whole entry partner): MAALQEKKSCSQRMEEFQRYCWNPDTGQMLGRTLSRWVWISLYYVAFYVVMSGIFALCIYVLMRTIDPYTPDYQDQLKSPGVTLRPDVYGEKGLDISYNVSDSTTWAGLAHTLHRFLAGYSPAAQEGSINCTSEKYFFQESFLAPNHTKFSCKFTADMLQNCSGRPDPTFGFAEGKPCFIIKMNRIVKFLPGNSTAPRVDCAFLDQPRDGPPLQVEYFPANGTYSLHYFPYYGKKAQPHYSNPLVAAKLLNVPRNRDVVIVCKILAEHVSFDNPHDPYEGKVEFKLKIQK

SMILES | IC50 [1] | ATP content (%, 30 μM) (HepG2) | Caspase-3/7 activity (%, 30 μM) (Caspase-3/7)
CNCc1cc(-c2cccnc2F)n(S(=O)(=O)c2ccccc2)c1.O=C(O)/C=C/C(=O)O [Example 1, 1-[5-(2-fluoropyridin-3-yl)-1-(phenylsulfonyl)-1H-pyrrol-3-yl]-N-methylmethanamine fumarate] | 26 nM | 88.1% | −1.3%
CNCc1cn(S(=O)(=O)c2cccnc2)c(-c2cccnc2F)c1F.O=C(O)/C=C/C(=O)O [Example 8, 1-[4-fluoro-5-(2-fluoropyridin-3-yl)-1-(pyridin-3-ylsulfonyl)-1H-pyrrol-3-yl]-N-methylmethanamine fumarate] | 90 nM | 103.9% | 0.2%
CNCc1cc(-c2cccnc2Cl)n(S(=O)(=O)c2ccccc2)c1.Cl [Example 15, 1-[5-(2-chloropyridin-3-yl)-1-(phenylsulfonyl)-1H-pyrrol-3-yl]-N-methylmethanamine hydrochloride] | 43 nM | 90.4% | −0.8%
CNCc1cn(S(=O)(=O)c2cccc(CO)c2)c(-c2cccnc2F)c1F [Example 48, [3-({3-fluoro-2-(2-fluoropyridin-3-yl)-4-[(methylamino)methyl]-1H-pyrrol-1-yl}sulfonyl)phenyl]methanol 0.5 fumarate] | 130 nM | 92.7% | −0.8%
CNCc1cn(S(=O)(=O)c2cccnc2)c(-c2cccnc2Cl)c1F.O=C(O)/C=C/C(=O)O [Example 38, 1-[5-(2-chloropyridin-3-yl)-4-fluoro-1-(pyridin-3-ylsulfonyl)-1H-pyrrol-3-yl]-N-methylmethanamine fumarate] | 130 nM | 93.4% | −0.4%
CNCc1cc(-c2ccc(C)nc2F)n(S(=O)(=O)c2cccnc2)c1.O=C(O)/C=C/C(=O)O [Example 13, 1-[5-(2-fluoro-6-methylpyridin-3-yl)-1-(pyridin-3-ylsulfonyl)-1H-pyrrol-3-yl]-N-methylmethanamine fumarate] | 120 nM | 87.7% | 0.2%
CNCc1cn(S(=O)(=O)c2ccccc2)c(-c2cccnc2F)c1F [Example 30, 1-[4-fluoro-5-(2-fluoropyridin-3-yl)-1-(phenylsulfonyl)-1H-pyrrol-3-yl]-N-methylmethanamine 0.5 fumarate] | 26 nM | 97.3% | −0.6%
CNCc1cn(S(=O)(=O)c2ccoc2C)c(-c2cccnc2F)c1F.Cl [Example 72, 1-{4-fluoro-5-(2-fluoropyridin-3-yl)-1-[(2-methylfuran-3-yl)sulfonyl]-1H-pyrrol-3-yl}-N-methylmethanamine hydrochloride] | 93 nM | 88.1% | −0.5%
CNCc1cc(-c2cccnc2Cl)n(S(=O)(=O)c2cccc(C#N)c2)c1.O=C(O)/C=C/C(=O)O [Example 54, 3-({2-(2-chloropyridin-3-yl)-4-[(methylamino)methyl]-1H-pyrrol-1-yl}sulfonyl)benzonitrile fumarate] | 65 nM | 96.8% | −0.4%
CNCc1cc(-c2cccnc2F)n(S(=O)(=O)c2ccco2)c1.O=C(O)/C=C/C(=O)O [Example 3, 1-[5-(2-fluoropyridin-3-yl)-1-(2-furylsulfonyl)-1H-pyrrol-3-yl]-N-methylmethanamine fumarate] | 59 nM | 91.4% | −0.5%
CNCc1cn(S(=O)(=O)c2ccc(CF)o2)c(-c2cccnc2F)c1F.O=C(O)/C=C/C(=O)O [Example 66, 1-[4-fluoro-1-{[5-(fluoromethyl)-2-furyl]sulfonyl}-5-(2-fluoropyridin-3-yl)-1H-pyrrol-3-yl]-N-methylmethanamine fumarate] | 140 nM | 94.8% | −0.2%
CNCc1cc(-c2cccnc2C#N)n(S(=O)(=O)c2ccccc2C#N)c1.Cl [Example 101, 3-{1-[(2-cyanophenyl)sulfonyl]-4-[(methylamino)methyl]-1H-pyrrol-2-yl}pyridine-2-carbonitrile hydrochloride] | 230 nM | 97.3% | −0.5%
CNCc1cn(S(=O)(=O)c2cnn(C)c2)c(-c2cccnc2F)c1Cl.O=C(O)/C=C/C(=O)O [Example 58, 1-{4-chloro-5-(2-fluoropyridin-3-yl)-1-[(1-methyl-1H-pyrazol-4-yl)sulfonyl]-1H-pyrrol-3-yl}-N-methylmethanamine fumarate] | 300 nM | 98.0% | −1.9%
CNCc1cn(S(=O)(=O)c2ccc(CO)o2)c(-c2cccnc2F)c1F [Example 64, [5-({3-fluoro-2-(2-fluoropyridin-3-yl)-4-[(methylamino)methyl]-1H-pyrrol-1-yl}sulfonyl)-2-furyl]methanol 0.5 fumarate] | 190 nM | 102.2% | −0.1%
CNCc1cn(S(=O)(=O)c2ccccn2)c(-c2cccnc2F)c1F.Cl [Example 85, 1-[4-fluoro-5-(2-fluoropyridin-3-yl)-1-(pyridin-2-ylsulfonyl)-1H-pyrrol-3-yl]-N-methylmethanamine hydrochloride] | 98 nM | 102.0% | −0.6%
CNCc1cn(S(=O)(=O)c2ccccc2)c(-c2cccnc2F)c1C.Cl [Example 26, 1-[5-(2-fluoropyridin-3-yl)-4-methyl-1-(phenylsulfonyl)-1H-pyrrol-3-yl]-N-methylmethanamine hydrochloride] | 110 nM | 85.2% | −0.2%
CNCc1cc(-c2cccnc2F)n(S(=O)(=O)c2ccc(F)cc2)c1.O=C(O)/C=C/C(=O)O [Example 20, 1-{1-[(4-fluorophenyl)sulfonyl]-5-(2-fluoropyridin-3-yl)-1H-pyrrol-3-yl}-N-methylmethanamine fumarate] | 57 nM | 86.6% | −0.2%
CNCc1cn(S(=O)(=O)c2ccc(C#N)o2)c(-c2cccnc2F)c1F.O=C(O)/C=C/C(=O)O [Example 68, 5-({3-fluoro-2-(2-fluoropyridin-3-yl)-4-[(methylamino)methyl]-1H-pyrrol-1-yl}sulfonyl)-2-furonitrile fumarate] | 170 nM | 83.4% | 3.6%
CNCc1cn(S(=O)(=O)c2cccnc2)c(-c2cccnc2F)c1F [Example 28, 1-[4-fluoro-5-(2-fluoropyridin-3-yl)-1-(pyridin-3-ylsulfonyl)-1H-pyrrol-3-yl]-N-methylmethanamine 0.5 fumarate] | 71 nM | – | –
